Here are results for 26 compounds from ChEMBL document CHEMBL1201862, “PubChem BioAssay data set” (2004).

Assay [1] has as its target T1, Corticotropin-releasing factor receptor 2/Corticotropin-releasing factor-binding protein (Homo sapiens, UniProt P24387+Q13324).
T1 sequence (Q13324 whole entry): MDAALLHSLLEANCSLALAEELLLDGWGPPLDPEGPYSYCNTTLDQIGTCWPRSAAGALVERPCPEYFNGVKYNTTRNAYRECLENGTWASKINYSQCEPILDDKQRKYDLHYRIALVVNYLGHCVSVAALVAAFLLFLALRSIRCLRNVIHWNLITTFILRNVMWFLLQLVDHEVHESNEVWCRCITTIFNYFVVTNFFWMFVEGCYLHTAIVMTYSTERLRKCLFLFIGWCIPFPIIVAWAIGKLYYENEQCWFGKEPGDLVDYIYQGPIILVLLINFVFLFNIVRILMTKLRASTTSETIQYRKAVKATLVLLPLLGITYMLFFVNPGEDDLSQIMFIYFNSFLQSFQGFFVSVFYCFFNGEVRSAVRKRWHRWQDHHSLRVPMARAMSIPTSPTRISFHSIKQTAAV
T1 sequence (P24387 whole entry): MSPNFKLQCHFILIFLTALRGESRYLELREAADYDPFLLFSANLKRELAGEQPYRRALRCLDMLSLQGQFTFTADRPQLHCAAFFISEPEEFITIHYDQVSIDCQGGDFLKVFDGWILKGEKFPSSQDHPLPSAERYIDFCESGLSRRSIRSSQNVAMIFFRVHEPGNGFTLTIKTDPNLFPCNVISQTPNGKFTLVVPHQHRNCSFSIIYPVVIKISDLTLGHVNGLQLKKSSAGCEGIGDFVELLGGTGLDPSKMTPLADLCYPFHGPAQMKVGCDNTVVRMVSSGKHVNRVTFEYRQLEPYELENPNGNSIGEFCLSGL
Put plainly: Dose Response confirmation of uHTS hits for small molecule antagonists of the CRF-binding protein and CRF-R2 receptor complex. To be noted: read-out: IC50_Mean. In kind it is functional.

In assay [2] the target is T1, Corticotropin-releasing factor receptor 2/Corticotropin-releasing factor-binding protein. Put plainly: activators of CRF receptor 2 with binding protein – uHTS hits, confirmation (AID 602473). Format: functional. The note with it: read-out: EC50_Mean.
Assay [3] is described as follows: inhibitors of SNCA 5'UTR-driven reporter translation, confirmation, H4 neuroglioma cells, luminescence (AID 1988). In kind it is functional, cell-based.
Assay [4] can be described thus: Luminescence Cell-Based Dose Response HTS to Identify Inhibitors of 5'UTR Stem-Loop Driven Prion Protein mRNA Translation in H4 Neuroglioblastoma Cells. [Related pubchem assays: 1827 (Project Summary), 1813 (Primary HTS)]. Format: functional.
A short description of assay [5]: inhibitors of firefly luciferase expression or activity, dose response, H4 neuroglioma cells, luminescence (AID 1990). Format: functional, cell-based.
Another assay concerns the target T2, Protein skinhead-1 (Caenorhabditis elegans, UniProt P34707).
T2 sequence (P34707 whole entry): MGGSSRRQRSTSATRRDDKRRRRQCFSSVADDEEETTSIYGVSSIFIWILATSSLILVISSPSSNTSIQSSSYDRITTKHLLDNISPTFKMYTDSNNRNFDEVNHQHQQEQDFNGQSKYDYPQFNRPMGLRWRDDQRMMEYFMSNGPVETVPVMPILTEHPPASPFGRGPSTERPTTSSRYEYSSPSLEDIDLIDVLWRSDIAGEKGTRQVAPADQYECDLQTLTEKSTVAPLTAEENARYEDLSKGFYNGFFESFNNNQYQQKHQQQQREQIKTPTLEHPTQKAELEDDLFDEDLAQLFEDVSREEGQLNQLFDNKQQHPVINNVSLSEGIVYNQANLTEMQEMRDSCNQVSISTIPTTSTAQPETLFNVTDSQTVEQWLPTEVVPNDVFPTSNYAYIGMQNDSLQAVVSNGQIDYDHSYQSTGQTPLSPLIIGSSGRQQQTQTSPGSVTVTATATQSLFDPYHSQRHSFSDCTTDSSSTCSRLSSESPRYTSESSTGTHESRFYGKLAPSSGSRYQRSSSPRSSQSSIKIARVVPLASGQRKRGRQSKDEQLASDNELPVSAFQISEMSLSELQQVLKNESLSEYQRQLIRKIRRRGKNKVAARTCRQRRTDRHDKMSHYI
In kind it is functional.

The target of another assay is T3, Protein RecA (Mycobacterium tuberculosis, UniProt P9WHJ3).
T3 sequence (P9WHJ3 whole entry): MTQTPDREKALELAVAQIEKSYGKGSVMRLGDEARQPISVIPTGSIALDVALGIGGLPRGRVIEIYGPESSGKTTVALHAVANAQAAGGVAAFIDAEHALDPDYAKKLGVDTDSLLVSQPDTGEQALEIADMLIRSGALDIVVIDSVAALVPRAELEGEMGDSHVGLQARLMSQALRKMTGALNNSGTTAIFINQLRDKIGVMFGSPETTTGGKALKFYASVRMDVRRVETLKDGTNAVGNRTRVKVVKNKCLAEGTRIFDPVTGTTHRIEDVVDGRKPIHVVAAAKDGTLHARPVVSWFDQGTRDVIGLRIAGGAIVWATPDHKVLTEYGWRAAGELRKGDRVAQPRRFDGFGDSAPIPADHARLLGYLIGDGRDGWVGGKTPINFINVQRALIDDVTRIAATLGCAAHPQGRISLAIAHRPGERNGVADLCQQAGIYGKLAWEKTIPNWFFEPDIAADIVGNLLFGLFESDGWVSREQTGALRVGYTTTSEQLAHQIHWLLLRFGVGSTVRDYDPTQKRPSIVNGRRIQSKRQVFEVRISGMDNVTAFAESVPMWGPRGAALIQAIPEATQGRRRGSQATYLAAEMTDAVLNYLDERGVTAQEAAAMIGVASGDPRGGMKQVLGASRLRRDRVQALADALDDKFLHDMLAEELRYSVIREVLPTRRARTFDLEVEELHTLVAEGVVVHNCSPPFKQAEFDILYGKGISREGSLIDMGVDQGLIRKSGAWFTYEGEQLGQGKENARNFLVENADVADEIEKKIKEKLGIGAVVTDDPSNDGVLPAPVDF
Put plainly: Fluorescence Cell-Free Homogeneous Dose Retest to Identify Inhibitors of RecA-Intein Splicing Activity. [Related pubchem assays (depositor defined):AID2097, AID2223, AID489010, AID492950]. Format: functional.

The target in assay [6] is T4, Replicative DNA helicase DnaB (Mycobacterium tuberculosis, UniProt P9WMR3).
T4 sequence (P9WMR3 whole entry): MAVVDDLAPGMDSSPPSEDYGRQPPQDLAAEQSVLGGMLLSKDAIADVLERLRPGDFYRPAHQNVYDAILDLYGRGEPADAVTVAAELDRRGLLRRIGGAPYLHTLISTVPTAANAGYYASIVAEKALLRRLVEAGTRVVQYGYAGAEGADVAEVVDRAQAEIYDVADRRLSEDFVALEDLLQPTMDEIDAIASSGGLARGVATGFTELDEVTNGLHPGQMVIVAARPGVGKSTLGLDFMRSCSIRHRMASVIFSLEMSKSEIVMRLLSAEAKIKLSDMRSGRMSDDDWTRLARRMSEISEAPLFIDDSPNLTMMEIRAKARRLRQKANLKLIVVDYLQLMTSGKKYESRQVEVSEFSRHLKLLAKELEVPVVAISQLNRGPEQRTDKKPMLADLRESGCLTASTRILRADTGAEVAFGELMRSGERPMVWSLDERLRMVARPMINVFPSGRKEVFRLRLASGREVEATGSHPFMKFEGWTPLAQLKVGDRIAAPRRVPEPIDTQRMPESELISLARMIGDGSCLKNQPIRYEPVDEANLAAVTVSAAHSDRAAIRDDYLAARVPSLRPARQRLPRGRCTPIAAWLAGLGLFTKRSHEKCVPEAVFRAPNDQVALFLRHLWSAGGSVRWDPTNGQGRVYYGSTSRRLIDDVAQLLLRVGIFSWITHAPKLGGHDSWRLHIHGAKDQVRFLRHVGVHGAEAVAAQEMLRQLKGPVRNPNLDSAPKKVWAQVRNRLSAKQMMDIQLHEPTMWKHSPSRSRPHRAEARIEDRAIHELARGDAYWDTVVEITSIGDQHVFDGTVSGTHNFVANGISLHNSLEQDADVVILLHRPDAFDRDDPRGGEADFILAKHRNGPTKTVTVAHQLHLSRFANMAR
Put plainly: DnaB intein splicing inhibitors, dose response, biochemical, cell-free fluorescence (AID 449749). Format: functional.

Calls of active or inactive are those of the source. For most assays here, no stated cut-off is given here; in the data, actives have a measured EC50 and inactives only a lower limit.

For `CC1CCc2c(C(=O)Nc3ccccn3)csc2C1` (stereo not given), in assay [1], the IC50 was > 47.1 µM (inactive). Besides, in assay [2], the EC50 is > 53 µM (inactive).
On the same counts, the results for `COc1ccccc1NC(=O)CN1C(=O)CCS(=O)(=O)c2ccccc21` are > 47.1 µM (inactive) and > 53 µM (inactive).
As to `COc1cc2c(cc1OC)C(C)N(C(=O)c1cc(C)on1)CC2` (stereo not given), the EC50 was 0.415 µM (active) in assay [3], 3.88 µM (active) in assay [4] and 4.12 µM (active) in assay [5].
Turning to `O=C(Nc1ccc(OC(=O)N2CCCC2)cc1)N1CCOCC1`, the IC50 at Protein skinhead-1 was > 100 µM (inactive).
`O=C(CSc1nc2ccccc2c(=O)n1Cc1ccco1)N1CCCC1`: the EC50 in assay [3] is > 120 µM (not active); in assay [4], > 120 µM (not active); in assay [5], 20.3 µM (active).
Consider `CC(C)OC(=O)CSc1nnnn1-c1ccc2c(c1)OCCO2`, for which, at Protein skinhead-1, the IC50 is > 100 µM (inactive).
As to `COC(=O)c1cc(C#N)c(N(C)Cc2ccccc2)nc1C`, the IC50 in assay [1] is 5.03 µM (active). In addition, the EC50 in assay [2] was > 53 µM (inactive).
For `C[C@](N)(CCP(=O)(O)O)C(=O)O`, the IC50 at Protein skinhead-1 is > 100 µM (inactive).
With `C=CCN(c1ccccc1)S(=O)(=O)c1cccc(C(=O)OCC(=O)NCCOC)c1`, the IC50 in assay [1] is > 47.1 µM (inactive). Also, the EC50 in assay [2] is > 53 µM (inactive).
Turning to `Cc1cccc(NC2=NC(=O)/C(=C/c3cccn3C)S2)c1C`, the IC50 at Protein skinhead-1 is > 100 µM (inactive).
On the same count and under the same terms, the result for `CCn1c(CCC(=O)Nc2nc3c(s2)CCCC3)nc2cc(S(=O)(=O)N(C)C)ccc21` reads > 100 µM (inactive).
Take `O=C(NCc1ccc(F)cc1)C(=O)NCC1OCCN1C(=O)c1ccc(Cl)cc1` (stereo not given): in assay [1], the IC50 is > 47.1 µM (inactive). Further, the EC50 in assay [2] is > 53 µM (inactive).
For the compound `COc1ccc(Cc2c(-c3ccco3)nc3c(C)cc(Br)cn23)c(C)c1`, at Protein skinhead-1, the IC50 was > 100 µM (inactive).
In the case of `CN1CCN(CC(=O)Nc2cc(N(C)C)nc3ccccc23)CC1`, the IC50 in assay [1] is > 47.1 µM (inactive). The EC50 in assay [2] was > 53 µM (inactive).
On the same counts, the results for `O=Nc1nc2ncccn2c1-c1ccccc1` are > 47.1 µM (inactive) and > 53 µM (inactive).
Regarding `Cc1nc2nc(CSc3nc4ccccc4s3)cc(O)n2n1`, at Protein skinhead-1, the IC50 is > 100 µM (inactive).
In the case of `Clc1ccc(N2CCN(c3ccnc(Cl)n3)CC2)cc1`, at Protein skinhead-1, the IC50 is 26.3 µM (active).
For the compound `O=C1C(=C2SCCCS2)CC/C1=C\c1ccc(F)cc1`, the EC50 in assay [3] is 0.116 µM (active); in assay [4], 4.36 µM (active); in assay [5], 0.238 µM (active).
Taken in the same sequence, the figures for `O=C(Nc1ccc(S(=O)(=O)NC2CCCCC2)cc1)c1ccco1` were > 120 µM (not active), > 120 µM (not active) and 26.7 µM (active).
For the compound `O=C(Cc1c(O)c2ccccc2[nH]c1=O)OC1CCCCC1`, the IC50 in assay [1] is > 47.1 µM (inactive). For the same compound, the EC50 in assay [2] was > 53 µM (inactive).
Usually AC50 stands for the midpoint of the concentration-response curve, whichever way the signal moves. Consider `Cc1c(OCC(=O)Nc2cccnc2)ccc2c3c(c(=O)oc12)CCC3`, for which the EC50 is 2.26 µM (active) on Protein RecA, > 120 µM (not active) in assay [3] and > 120 µM (not active) in assay [4]. Further, the concentration at half-maximal activity (AC50) in assay [6] is 2.65 µM (active).
In the case of `CCCOc1cc(C)c(S(=O)(=O)NCc2cccs2)cc1C`, the IC50 on Protein skinhead-1 was > 100 µM (inactive).
On to `CC(C)NC(=O)COC(=O)c1ccc(S(=O)(=O)N2CCCC2)cc1`, for which the EC50 in assay [3], in assay [4] and in assay [5] was > 120 µM (not active) each time.
Consider `COC(=O)C(F)(F)Sc1c(C)[nH]c2ccccc12`, for which the IC50 in assay [1] was 15.4 µM (active). In assay [2], the EC50 was > 53 µM (inactive).
In the case of `Cc1ccc(S(=O)(=O)NC2=NCN(C3CCN(Cc4ccccc4)CC3)CN2)cc1`, the IC50 in assay [1] was > 47.1 µM (inactive). Besides, the EC50 in assay [2] was > 53 µM (inactive).
On the same counts, the results for `Cc1ccc(-c2ccc(SCC(=O)NCC3CCCO3)nn2)cc1` (stereo not given) are > 47.1 µM (inactive) and > 53 µM (inactive).
